From ChEMBL document CHEMBL3046744, “Comparison of the declining triazole sensitivity of Gibberella zeae and increased sensitivity achieved by advances in triazole fungicide development” (Crop Prot, 2007)
Activity calls are given as the source filed them. The calls are words filed in the database; no cut-off is given here.

What was measured:
[1] = test system: Fusarium culmorum; experiment: Antifungal activity against Fusarium culmorum infected durum wheat assessed as reduction in deoxynivalenol content in crop; type: functional; set-up: scale not given: the % may be the effect or the level left
[2] = test system: Fusarium graminearum; experiment: Growth inhibition of Fusarium graminearum isolate 74B at 10^-4 M after 14 days; type: functional; conditions: 336 h, read-out: GI
[3] = test system: Fusarium graminearum; experiment: Growth inhibition of Fusarium graminearum isolate 4527b at 10^-4 M after 14 days; type: functional; conditions: 336 h, read-out: GI
[4] = test system: Fusarium graminearum; experiment: Growth inhibition of Fusarium graminearum isolate 106 at 10^-4 M after 14 days; type: functional; conditions: isolate 106, 336 h, read-out: GI
[5] = Aqueous solubility of the compound assessed per 100 g; type: physicochemical; conditions: buffer
[6] = test system: Fusarium graminearum; experiment: Growth inhibition of Fusarium graminearum isolate 137 at 10^-4 M after 14 days; type: functional; conditions: isolate 137, 336 h, read-out: GI
[7] = test system: Fusarium graminearum; experiment: Antifungal activity against Fusarium graminearum after 8 hr by microscopic analysis relative to prothioconazole; type: functional
[8] = test system: Fusarium graminearum; experiment: Growth inhibition of Fusarium graminearum isolate 102 at 10^-4 M after 14 days; type: functional; conditions: isolate 102, 336 h, read-out: GI
[9] = test system: Fusarium graminearum; experiment: Antifungal activity against Fusarium graminearum isolate 137 after 8 hr by microscopic analysis; type: functional, organism-based; conditions: isolate 137, 8 h, pooled result: one value given for 5 cell lines, strains, targets or settings
[10] = test system: Fusarium graminearum; experiment: Growth inhibition of Fusarium graminearum isolate 123 at 10^-4 M after 14 days; type: functional; conditions: isolate 123, 336 h, read-out: GI
[11] = test system: Rattus norvegicus; experiment: Toxicity in po dosed Rattus norvegicus (rat) relative to metconazole; type: organism-based; conditions: in vivo
[12] = test system: Fusarium graminearum; experiment: Growth inhibition of Fusarium graminearum isolate 37 at 10^-4 M after 14 days; type: functional; conditions: isolate 37, 336 h, read-out: GI
[13] = Toxicity in po dosed Rattus norvegicus (rat); type: organism-based; conditions: in vivo
[14] = Aqueous solubility of the compound assessed per 100 g at pH 7; type: physicochemical; conditions: buffer
[15] = Selectivity ratio of relative toxicity against po dosed rat to relative efficacy against Gibberella zeae; type: organism-based; conditions: in vivo
[16] = test system: Fusarium graminearum; experiment: Growth inhibition of Fusarium graminearum at >/= 0.001 M after 14 days; type: functional, organism-based

Row | SMILES | Activity [1] [%] | solubility [5] [mg] | fold change (FC) [7] | EC50 [9] [µM] | fold change (FC) [11] | LD50 [13] [mg/kg] | selectivity ratio [15] | also measured
1 | Clc1ccc(C2(Cn3cncn3)CC(Br)CO2)c(Cl)c1 (stereo unspecified) [BROMUCONAZOLE] | 43 | – | – | – | – | – | – | –
2 | Fc1ccc([C@]2(Cn3cncn3)O[C@H]2c2ccccc2Cl)cc1 [EPOXICONAZOLE] | – | 0.7 | 0 | 10800 | 0.19 | 3160 | – | inhibition of growth at 100 µM [2]: 95.7%; inhibition of growth at 100 µM [3]: 98%; inhibition of growth at 100 µM [4]: 95.4%; inhibition of growth at 100 µM [6]: 99.6%; inhibition of growth at 100 µM [8]: 97.1%; inhibition of growth at 100 µM [10]: 95.9%; inhibition of growth at 100 µM [12]: 98.7%
3 | CC1(C)CCC(Cc2ccc(Cl)cc2)C1(O)Cn1cncn1 (stereo unspecified) [METCONAZOLE] | – | – | 0.27 | 177 | – | 660 | 0.27 | solubility [14]: 3 mg
4 | CCCN(CCOc1c(Cl)cc(Cl)cc1Cl)C(=O)n1ccnc1 [PROCHLORAZ] | 43 | – | – | – | – | – | – | –
5 | OC(Cc1ccccc1Cl)(Cn1nc[nH]c1=S)C1(Cl)CC1 (stereo unspecified) [PROTHIOCONAZOLE] | – | – | – | 32 | 0.1 | 6200 | 10.3 | –
6 | CC(C)(C)C(O)(CCc1ccc(Cl)cc1)Cn1cncn1 (stereo unspecified) [TEBUCONAZOLE] | 43 | 3.6 | 0.15 | 327 | 0.35 | 1700 | 0.44 | growth inhibition (GI) [16]: Active
